Source: patent US12435091B2, “RNA-binding protein multimerization inhibitors and methods of use thereof” (THE UAB RESEARCH FOUNDATION, priority 2020, dated 2025)
Values after ≈ are worked out from the molar mass of the structure shown. Like-named read-outs stand apart in the source and are kept apart here.

How the values were obtained:
[1] = tested on: U251 cells expressing Fluc construct; assay: control Fluc (full length luciferase) reporter assay in U251 cells; assay type: cell-based; conditions: Homo sapiens, U-251, 6 h; Concn 50 uM; read-out: Fluc Imax % Inh
Description: The oncogenic activity of HuR is driven by subcellular localization into the cytoplasm and formation of multimers of HuR. To develop cell based assays to characterize the ability of small molecules to disrupt this process, a split luciferase assay detecting the formation of HuR dimers was developed. The assays were performed in 96 well plates with clear bottom (Corning Inc., Corning, NY). Cells with designed constructs (30,000-50,000 in number) were plated per well; the constructs were induced by doxycycline (0.75 ug/ml) for 48 hours. The evaluated compounds at different concentrations and the corresponding vehicle as the control were administered for 6 hours. The luminescence signals were detected by using InfinitiM200 plate reader (TECAN, Morrisville, NC) in the presence of the luciferase substrate luciferin (D-Luciferin, potassium salt), which was purchased from GoldBio (St Louis, MO). A multichannel pipette (XL 3000I™, Denville Scientific, South Plainfield, NJ) was used in all procedures to ensure the experiment quality. […]
(§1) Squares represent luminescence signal from reporter representing HuR dimers (U251 cells co-expressing HuR-Nluc and HuR-Cluc constructs); circles represent luminescence signal from control reporter (U251 cells expressing Fluc construct). Results are shown as mean+SD.

[2] = target: AAK1 (Homo sapiens, UniProt Q2M2I8); assay: SelectScreen kinase profiling, LanthaScreen Binding
Description: (§2) The kinase inhibitory potentials of compounds as described herein (e.g., SRI-42127 and SRI-41664) were evaluated by ThermoFisher Scientific's SelectScreen™ Kinase Profiling Service. The following kinase inhibitory assays were utilized: ZLYTE (Madison, WI) for NTRK1, PIM1, and cMET kinases; LanthaScreen Binding (Madison, WI) for AAK1 kinase; and Adapta (Madison, WI) for IRAK1 kinase.

[3] = target: IRAK1 (Homo sapiens, UniProt P51617); assay: SelectScreen kinase profiling, Adapta; assay type: biochemical
Description: as §2

[4] = target: PIM1 (Homo sapiens, UniProt P11309); assay: SelectScreen kinase profiling, ZLYTE; assay type: biochemical
Description: as §2

[5] = target: TRKA (NTRK1) (Homo sapiens, UniProt P04629); assay: SelectScreen kinase profiling, ZLYTE; assay type: biochemical
Description: as §2

[6] = target: cMET (Homo sapiens, UniProt P08581); assay: SelectScreen kinase profiling, ZLYTE; assay type: biochemical
Description: as §2

[7] = tested on: LN229 glioma cell line; assay: PrestoBlue cell viability assay; assay type: cell-based; conditions: Homo sapiens, LN-229; LN229, 48 hours of treatment
Description: (§3) PrestoBlue cell viability reagent (ThermoFisher Scientific; Waltham, MA) was used for cell viability assays. The inhibitory dose-response data were normalized to the control (treatment with vehicle); the inhibitory dose-response curves, which were fitted by using Boltzmann equation, and the corresponding IC50s were generated by using OriginPro software (OriginLab Corporation, CA).
(§4) The glioma suppressive potentials of the new class of HuR multimerization inhibitors were evaluated by utilizing SRI-41664 and SRI-42127 compounds in several cell-based assays. First, it was confirmed that the SRI-41664 and SRI-42127 compounds are cytotoxic for established and PDGx cell lines. FIG. 5A illustrates the inhibitory dose responses of SRI-41664 and SRI-42127 compounds in the established U251, LN229, and the PDGx XD456 glioma cell lines. […] An HuR-overexpression approach was employed to confirm SRI-42127 inhibitory potency against HuR dimerization.

[8] = tested on: PDGx XD456 glioma cell line; assay: PrestoBlue cell viability assay; assay type: cell-based; conditions: Glioma cell; XD456, 48 hours of treatment
Description: as §3, §4

[9] = tested on: U251 glioma cell line; assay: PrestoBlue cell viability assay; assay type: cell-based; conditions: Homo sapiens, U-251, 48 h, U251, 48 hours of treatment; read-out: IC50 cell viability
Description: as §3, §4

[10] = tested on: U251 and XD456 glioma cell lines; assay: western blotting of glioma cell fractions (Bcl2, Mcl1, SOX2, cleaved PARP, cleaved caspase 3); assay type: cell-based; conditions: U251 and XD456, 10 uM for 48 hours
Description: Western blotting was performed. Nuclear and cytoplasmic protein fractionations were performed using NE-PER Nuclear and Cytoplasmic extraction reagents (ThermoFisher Scientific). Anti-lamin A/C and anti-Tubulin alpha antibodies were utilized to verify nuclear and cytoplasmic fractions, respectively. Antibodies against lamin A/C, cleaved PARP, cleaved caspase 3, SOX2, and Mcl1 were purchased from Cell Signaling Technology (Danvers, MA). Anti-Tubulin alpha antibody was purchased from Sigma-Aldrich. Antibodies against HuR, actin, and Bcl2 were purchased from Santa Cruz Biotechnology (Santa Cruz, CA). Polyclonal anti-HuR antibody for HuR/mRNA co-immunoprecipitation was purchased from MBL International (Woburn, MA).
In FIG. 8B, representative western blots confirm reduction of Bcl2 and Mcl1 proteins in cytoplasmic fractions of U251 and XD456 cell lines following treatment with compounds as described herein, 10 uM for 48 hours. SOX2 reduction in nuclear fractions indicates decrease of tumorigenicity of cell lines after treatment with compounds as described herein. Actin and Lamin A/C were utilized for data normalization in cytoplasmic and nuclear fractions, respectively.
In FIG. 8C, representative western blots illustrate appearances of cleaved PARP and cleaved caspase 3 in glioma cell lines after treatment with compounds as described herein, 10 uM for 48 hours. […]

[11] = target: T1, HuR (Homo sapiens, UniProt Q15717); assay: cell-based split firefly luciferase-HuR dimerization assay; conditions: for IC50: read-out: HuR IC50
T1 construct: expressed in transfected cells; host or cells: U251 glioma cells, doxycycline-inducible constructs
Description: The oncogenic activity of HuR is driven by subcellular localization into the cytoplasm and formation of multimers of HuR. To develop cell based assays to characterize the ability of small molecules to disrupt this process, a split luciferase assay detecting the formation of HuR dimers was developed. The assays were performed in 96 well plates with clear bottom (Corning Inc., Corning, NY). Cells with designed constructs (30,000-50,000 in number) were plated per well; the constructs were induced by doxycycline (0.75 ug/ml) for 48 hours. The evaluated compounds at different concentrations and the corresponding vehicle as the control were administered for 6 hours. The luminescence signals were detected by using InfinitiM200 plate reader (TECAN, Morrisville, NC) in the presence of the luciferase substrate luciferin (D-Luciferin, potassium salt), which was purchased from GoldBio (St Louis, MO). A multichannel pipette (XL 3000I™, Denville Scientific, South Plainfield, NJ) was used in all procedures to ensure the experiment quality.
The assay used the coding sequence of HuR in frame with the N-terminus of firefly luciferase or the C-terminus as depicted in FIG. 2A. When HuR forms dimers in this case, luciferase is generated and with luciferin present, luminescence is generated.
as §1

[12] = aqueous solubility at pH 7.4; assay type: physicochemical; conditions: aqueous medium at pH 7.4, pH 7.4, aqueous buffer; read-out: Sol @ pH 7.4
Description: (§5) Selected compounds were assessed for their aqueous solubility, Log D and mouse and human liver microsomal stability.

[13] = Log D at pH 7.4; assay type: physicochemical
Description: as §5

[14] = Mouse liver microsomal stability in vitro; assay type: in vitro ADME; conditions: liver microsomes, read-out: MLM t1/2
Description: as §5

[15] = in vitro; conditions: human, liver microsomes
Description: as §5

[16] = split luciferase HuR dimerization assay, compounds administered for 6 hours

T1 sequence (Q15717 whole entry): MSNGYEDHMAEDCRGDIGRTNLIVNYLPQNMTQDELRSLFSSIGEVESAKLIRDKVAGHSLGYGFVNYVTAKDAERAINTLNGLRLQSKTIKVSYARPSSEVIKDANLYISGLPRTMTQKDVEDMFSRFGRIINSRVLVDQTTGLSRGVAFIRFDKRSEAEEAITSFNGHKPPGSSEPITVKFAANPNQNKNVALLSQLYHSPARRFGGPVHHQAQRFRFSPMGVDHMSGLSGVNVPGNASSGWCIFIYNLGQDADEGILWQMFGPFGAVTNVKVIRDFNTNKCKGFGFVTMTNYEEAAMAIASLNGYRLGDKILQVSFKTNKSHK
cMET, sequence (P08581 25-1390): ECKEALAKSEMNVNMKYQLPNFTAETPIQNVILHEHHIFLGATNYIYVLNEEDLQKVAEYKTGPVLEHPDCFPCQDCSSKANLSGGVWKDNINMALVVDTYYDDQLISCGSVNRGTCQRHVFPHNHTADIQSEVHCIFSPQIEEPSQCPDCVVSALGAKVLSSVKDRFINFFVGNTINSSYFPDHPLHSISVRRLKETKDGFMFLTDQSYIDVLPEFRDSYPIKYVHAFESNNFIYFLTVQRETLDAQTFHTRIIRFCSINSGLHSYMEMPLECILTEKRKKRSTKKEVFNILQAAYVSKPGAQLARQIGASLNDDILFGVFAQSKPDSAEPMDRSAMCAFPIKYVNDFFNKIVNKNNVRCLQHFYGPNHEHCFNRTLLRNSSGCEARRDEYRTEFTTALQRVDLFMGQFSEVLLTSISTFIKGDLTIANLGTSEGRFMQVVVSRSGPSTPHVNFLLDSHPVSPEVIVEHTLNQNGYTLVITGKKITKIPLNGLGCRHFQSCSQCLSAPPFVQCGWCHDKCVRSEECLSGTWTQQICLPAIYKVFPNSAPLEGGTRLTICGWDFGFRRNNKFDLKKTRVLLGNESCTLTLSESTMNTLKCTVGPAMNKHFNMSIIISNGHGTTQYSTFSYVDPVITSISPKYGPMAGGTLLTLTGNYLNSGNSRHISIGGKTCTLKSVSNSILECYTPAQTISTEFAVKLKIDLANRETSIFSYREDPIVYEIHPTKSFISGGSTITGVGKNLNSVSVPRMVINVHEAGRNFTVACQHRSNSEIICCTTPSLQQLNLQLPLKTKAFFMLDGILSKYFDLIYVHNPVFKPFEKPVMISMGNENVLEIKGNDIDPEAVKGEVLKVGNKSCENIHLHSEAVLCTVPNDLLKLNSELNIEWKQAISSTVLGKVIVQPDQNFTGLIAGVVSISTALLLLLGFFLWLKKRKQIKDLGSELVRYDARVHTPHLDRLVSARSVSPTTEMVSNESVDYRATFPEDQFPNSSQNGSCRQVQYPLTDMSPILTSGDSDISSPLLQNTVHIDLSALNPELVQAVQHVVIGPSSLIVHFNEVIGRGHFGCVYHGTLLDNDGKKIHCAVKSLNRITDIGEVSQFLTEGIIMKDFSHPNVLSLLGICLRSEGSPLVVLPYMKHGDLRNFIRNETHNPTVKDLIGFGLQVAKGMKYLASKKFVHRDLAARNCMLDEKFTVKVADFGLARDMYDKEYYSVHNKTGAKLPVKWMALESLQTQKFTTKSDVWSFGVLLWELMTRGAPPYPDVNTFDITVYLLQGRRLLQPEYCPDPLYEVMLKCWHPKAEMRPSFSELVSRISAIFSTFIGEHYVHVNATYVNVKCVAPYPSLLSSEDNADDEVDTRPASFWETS
PIM1, sequence (P11309 whole entry): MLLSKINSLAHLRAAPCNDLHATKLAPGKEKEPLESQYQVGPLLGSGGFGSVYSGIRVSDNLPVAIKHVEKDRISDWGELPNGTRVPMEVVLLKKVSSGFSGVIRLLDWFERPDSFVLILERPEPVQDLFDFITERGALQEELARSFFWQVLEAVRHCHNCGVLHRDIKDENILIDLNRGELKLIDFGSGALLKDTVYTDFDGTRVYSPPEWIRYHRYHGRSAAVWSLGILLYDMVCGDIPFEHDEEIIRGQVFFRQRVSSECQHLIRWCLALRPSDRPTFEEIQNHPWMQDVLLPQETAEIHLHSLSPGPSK
TRKA (NTRK1), sequence (P04629 33-796): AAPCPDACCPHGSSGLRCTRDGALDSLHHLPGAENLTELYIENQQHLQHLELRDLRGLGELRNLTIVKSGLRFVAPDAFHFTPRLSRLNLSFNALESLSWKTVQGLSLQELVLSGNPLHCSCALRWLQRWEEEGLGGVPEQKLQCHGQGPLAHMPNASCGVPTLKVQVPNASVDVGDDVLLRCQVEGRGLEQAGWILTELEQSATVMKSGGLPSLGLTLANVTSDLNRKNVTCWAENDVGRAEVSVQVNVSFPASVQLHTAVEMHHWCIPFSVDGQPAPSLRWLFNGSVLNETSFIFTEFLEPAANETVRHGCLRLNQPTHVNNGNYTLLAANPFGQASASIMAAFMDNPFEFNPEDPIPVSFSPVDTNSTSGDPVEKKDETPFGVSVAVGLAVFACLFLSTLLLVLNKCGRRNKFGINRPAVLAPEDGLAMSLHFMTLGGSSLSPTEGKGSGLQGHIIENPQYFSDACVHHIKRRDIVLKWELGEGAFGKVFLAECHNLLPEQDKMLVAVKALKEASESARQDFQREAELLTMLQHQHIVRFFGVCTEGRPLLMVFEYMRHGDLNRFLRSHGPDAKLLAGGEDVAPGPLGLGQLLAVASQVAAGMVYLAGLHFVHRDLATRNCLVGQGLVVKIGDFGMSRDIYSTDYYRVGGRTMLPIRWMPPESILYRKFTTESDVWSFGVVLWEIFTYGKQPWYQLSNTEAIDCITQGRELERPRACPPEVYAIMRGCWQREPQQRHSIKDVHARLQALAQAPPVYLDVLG
AAK1, sequence (Q2M2I8 whole entry): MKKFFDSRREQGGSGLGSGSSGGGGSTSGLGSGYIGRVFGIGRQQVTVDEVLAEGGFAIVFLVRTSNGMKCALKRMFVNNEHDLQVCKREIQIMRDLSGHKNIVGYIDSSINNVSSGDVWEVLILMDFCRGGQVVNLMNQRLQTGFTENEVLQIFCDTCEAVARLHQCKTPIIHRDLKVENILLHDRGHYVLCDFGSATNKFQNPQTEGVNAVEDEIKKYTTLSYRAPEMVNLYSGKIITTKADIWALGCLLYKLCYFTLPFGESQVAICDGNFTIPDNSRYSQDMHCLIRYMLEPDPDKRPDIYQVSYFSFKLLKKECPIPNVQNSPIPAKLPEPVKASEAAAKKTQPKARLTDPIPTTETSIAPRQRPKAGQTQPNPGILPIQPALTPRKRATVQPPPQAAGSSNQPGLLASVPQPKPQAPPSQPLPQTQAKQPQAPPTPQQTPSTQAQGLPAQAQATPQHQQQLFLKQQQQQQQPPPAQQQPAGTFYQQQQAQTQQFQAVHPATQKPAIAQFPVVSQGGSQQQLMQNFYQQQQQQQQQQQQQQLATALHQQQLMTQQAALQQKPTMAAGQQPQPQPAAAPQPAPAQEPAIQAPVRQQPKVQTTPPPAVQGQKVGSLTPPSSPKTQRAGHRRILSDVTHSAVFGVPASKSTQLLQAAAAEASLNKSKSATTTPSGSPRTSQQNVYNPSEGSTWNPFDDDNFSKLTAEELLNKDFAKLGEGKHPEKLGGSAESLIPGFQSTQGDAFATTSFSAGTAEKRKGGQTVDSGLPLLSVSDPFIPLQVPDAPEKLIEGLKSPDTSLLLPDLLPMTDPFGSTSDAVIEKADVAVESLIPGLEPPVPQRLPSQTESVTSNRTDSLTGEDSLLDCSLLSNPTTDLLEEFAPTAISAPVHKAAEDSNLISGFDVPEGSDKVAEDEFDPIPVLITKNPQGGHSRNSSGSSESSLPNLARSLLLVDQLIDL
IRAK1, sequence (P51617 whole entry): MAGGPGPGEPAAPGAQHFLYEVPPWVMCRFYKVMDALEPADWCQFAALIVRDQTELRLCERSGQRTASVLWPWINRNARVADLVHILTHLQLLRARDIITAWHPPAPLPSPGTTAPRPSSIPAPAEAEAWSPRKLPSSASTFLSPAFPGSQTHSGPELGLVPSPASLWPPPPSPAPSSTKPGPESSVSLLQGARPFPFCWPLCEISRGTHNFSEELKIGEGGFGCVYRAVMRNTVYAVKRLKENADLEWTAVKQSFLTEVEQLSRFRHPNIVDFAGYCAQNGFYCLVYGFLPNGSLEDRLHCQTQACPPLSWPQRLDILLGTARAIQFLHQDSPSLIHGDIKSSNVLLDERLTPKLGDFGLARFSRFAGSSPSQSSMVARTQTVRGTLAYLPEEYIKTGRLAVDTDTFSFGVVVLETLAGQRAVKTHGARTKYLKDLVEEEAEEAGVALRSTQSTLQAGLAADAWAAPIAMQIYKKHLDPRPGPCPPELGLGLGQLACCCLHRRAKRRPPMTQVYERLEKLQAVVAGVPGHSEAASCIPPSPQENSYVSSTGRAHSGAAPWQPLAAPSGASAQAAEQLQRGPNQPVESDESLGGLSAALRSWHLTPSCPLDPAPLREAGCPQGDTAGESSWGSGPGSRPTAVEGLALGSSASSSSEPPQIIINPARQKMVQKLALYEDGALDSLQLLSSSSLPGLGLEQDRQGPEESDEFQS

| SMILES | inhibition at 50 µM [1] | IC50 [2] | IC50 [3] | IC50 [4] | IC50 [5] | IC50 [6] | IC50 [7] | IC50 [8] | IC50 [9] | Bcl2 and Mcl1 protein levels in cytoplasmic fractions [10] | cleaved caspase 3 and cleaved PARP (apoptosis) [10] | HuR inhibition activity (in words) [11] | IC50 [11, 16] | solubility [12] | logD [13] | half-life [14] | half-life [15] | HuR N/C Imax % Inh ([11]; Concn 50 uM) | IC50 ([11]; U251 cells co-expressing HuR-Nluc and HuR-Cluc, 6 hours of treatment) |
| --- | --- | --- | --- | --- | --- | --- | --- | --- | --- | --- | --- | --- | --- | --- | --- | --- | --- | --- | --- |
| c1cc2cn[nH]c2cc1-c1cnc2ccc(NC3CCOCC3)nn12 [Compound 5] | 38% | 0.03 µM | 0.3 µM | 0.829 µM | 0.099 µM | 5.98 µM | 3.8 ± 0.5 µM | 4.8 ± 1.1 µM | 3.4 ± 0.5 µM | dramatic reduction | appearances of cleaved caspase 3 and cleaved PARP | – | – | – | – | – | – | – | – |
| CCN(c1ccc2ncc(-c3ccc4cn[nH]c4c3)n2n1)C1CCOCC1 [Compound 26] | – | 15.7 µM | > 30 µM | > 30 µM | > 30 µM | > 30 µM | – | – | – | – | – | inactive | > 50 µM | – | – | – | – | – | – |
| CCCN(c1ccc2ncc(-c3ccc4cn[nH]c4c3)n2n1)C1CCOCC1 [Compound 27] | – | 13 µM | > 30 µM | > 30 µM | > 30 µM | > 30 µM | – | – | – | – | – | inactive | > 50 µM | 65.3 µM (≈ 24.6 µg/mL) | 0.4 | 9.8 min | > 300 min | – | – |
| CCCN(C)c1ccc2ncc(-c3ccc4[nH]nc(C(C)=O)c4c3)n2n1 [Compound 53, 1-(5-(6-(Methyl(propyl)amino)imidazo[1,2-b]pyridazin-3-yl)-1H-indazol-3-yl)ethan-1-one] | 10% | – | – | – | – | – | – | – | – | – | – | – | 6 µM | < 1 µM | > 4.48 | 1.3 min | 6.3 min | 72% | 6 µM |
